According to patent US9861116B2, “Pet food compositions for inducing a satiety response” (Hill's Pet Nutrition, Inc., priority 2010, dated 2018):

What was measured:
NPY = experiment: Affymetrix feline GeneChip gene expression analysis, NPY; format: cell-based; settings: in two cell lines tested, amount tested 0.003 mg/mL, 0.03 mg/mL, treatment intensity/control intensity
Protocol: (§1) Gene expression was analyzed using proprietary feline GeneChip® Arrays prepared by Affymetrix, Inc., Santa Clara, Calif. 95051. Total RNA is reverse transcribed into cDNA. The cDNA is used to generate cRNA which is fragmented and used as probes for GeneChip hybridization. The gene chip is washed and the hybridization signal is measured with an Affymetrix laser scanner. The hybridization data is then validated and normalized for further analysis.
(§2) Materials: Affymetrix provided most of the reagents and kit. Other reagents listed in the Affymetrix Manual but not supplied in the kit were obtained separately. Refer to GeneChip Expression Analysis Technical Manual (701021 Rev.4) for the details.
(§3) Equipment. […]
(§4) Affymetrix gene chips are used to determine the effect of various test substances or ingredients on gene expression in four feline cell lines and appropriate controls. […] Gene expression was measured for the treatment cell lines and controls. The gene expression data was determined to be either “up” or “down”-regulated for any given treatment. The decision on whether a gene is “up” or “down” is based on the fold change, which is calculated as treatment intensity/control intensity for each individual probe.

LEPR = experiment: Affymetrix feline GeneChip gene expression analysis, LEPR; format: cell-based; settings: in all cell lines tested (CCL-150, CCL-176, CRL-2032, CCL-94); amount tested 0.005 mg/mL, 0.05 mg/mL; treatment intensity/control intensity
Protocol: as §1, §2, §3, §4

CC1=C(/C=C/C(C)=C/C=C/C(C)=C/C=C/C=C(C)/C=C/C=C(C)/C=C/C2=C(C)CCCC2(C)C)C(C)(C)CCC1 [Beta-Carotene]
Fold Change (gene expression, NPY) (NPY): −1.75 (in two cell

Oc1ccc(C=Cc2cc(O)cc(O)c2)cc1 [Resveratrol]
Fold Change (gene expression, LEPR) (LEPR): 1.96 (in all cell lines
